From ChEMBL document CHEMBL1201862, “PubChem BioAssay data set” (2004)
Active and inactive are the calls of the source.

How the values were obtained:
[1] = A cytotoxicity screen of small molecule inhibitors of the PhoP region in Salmonella typhi identified in the primary screen. [Related pubchem assays: 1850, 1864, 1985 ]; type: functional
Procathepsin L = Procathepsin L (Homo sapiens, UniProt P07711); experiment: cathepsin L inhibitors, dose response, counter-screen for M1/M17 aminopeptidase inhibitor project, biochemical, QFRET, 1536-well (AID 2214)
Procathepsin L, sequence (P07711 whole entry): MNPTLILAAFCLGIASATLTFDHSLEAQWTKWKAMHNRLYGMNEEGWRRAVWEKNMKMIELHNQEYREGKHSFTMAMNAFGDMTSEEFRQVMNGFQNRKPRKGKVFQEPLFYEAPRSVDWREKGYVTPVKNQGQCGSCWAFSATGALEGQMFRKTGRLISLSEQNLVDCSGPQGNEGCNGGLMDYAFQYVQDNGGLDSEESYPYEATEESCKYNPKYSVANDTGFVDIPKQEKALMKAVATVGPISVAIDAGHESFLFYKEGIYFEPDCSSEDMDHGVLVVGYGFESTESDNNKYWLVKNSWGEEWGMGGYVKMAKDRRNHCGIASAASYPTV

Leucine aminopeptidase = target: T1, Leucine aminopeptidase (Plasmodium falciparum 3D7, UniProt Q8IL11); experiment: P. falciparum M17LAP inhibitors, primary screen, biochemical, fluorogenic H-Leu-NHMec substrate, 1536-well (AID 1619); type: functional
T1 sequence (Q8IL11 whole entry): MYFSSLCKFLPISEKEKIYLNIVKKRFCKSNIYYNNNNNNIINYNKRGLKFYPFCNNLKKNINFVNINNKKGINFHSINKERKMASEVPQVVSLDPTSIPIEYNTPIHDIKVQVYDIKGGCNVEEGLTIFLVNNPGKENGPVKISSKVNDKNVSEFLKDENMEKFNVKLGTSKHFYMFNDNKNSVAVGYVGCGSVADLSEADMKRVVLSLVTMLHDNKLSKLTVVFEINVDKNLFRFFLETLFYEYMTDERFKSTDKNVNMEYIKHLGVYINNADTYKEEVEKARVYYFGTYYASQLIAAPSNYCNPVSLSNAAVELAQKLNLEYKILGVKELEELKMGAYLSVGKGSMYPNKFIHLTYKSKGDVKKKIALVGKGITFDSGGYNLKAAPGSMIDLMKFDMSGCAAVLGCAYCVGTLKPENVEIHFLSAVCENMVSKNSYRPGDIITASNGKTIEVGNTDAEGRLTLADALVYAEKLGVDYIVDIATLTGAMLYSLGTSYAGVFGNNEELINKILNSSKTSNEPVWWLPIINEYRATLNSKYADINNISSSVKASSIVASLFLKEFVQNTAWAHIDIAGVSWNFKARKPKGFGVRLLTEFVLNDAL

Aspartyl aminopeptidase = target: T2, Aspartyl aminopeptidase (Plasmodium falciparum 3D7, UniProt Q8I2J3); experiment: Counterscreen for inhibitors of M1 and M17 aminopeptidases: QFRET-based biochemical high throughput dose response assay for inhibitors of the Plasmodium falciparum M18 Aspartyl Aminopeptidase (PFM18AAP). [Related PubChem assays: 1619 (Screening assay (M17LAP inhibitors).), 1445 (Screening assay (M1AAP inhibitors).)]
T2 sequence (Q8I2J3 whole entry): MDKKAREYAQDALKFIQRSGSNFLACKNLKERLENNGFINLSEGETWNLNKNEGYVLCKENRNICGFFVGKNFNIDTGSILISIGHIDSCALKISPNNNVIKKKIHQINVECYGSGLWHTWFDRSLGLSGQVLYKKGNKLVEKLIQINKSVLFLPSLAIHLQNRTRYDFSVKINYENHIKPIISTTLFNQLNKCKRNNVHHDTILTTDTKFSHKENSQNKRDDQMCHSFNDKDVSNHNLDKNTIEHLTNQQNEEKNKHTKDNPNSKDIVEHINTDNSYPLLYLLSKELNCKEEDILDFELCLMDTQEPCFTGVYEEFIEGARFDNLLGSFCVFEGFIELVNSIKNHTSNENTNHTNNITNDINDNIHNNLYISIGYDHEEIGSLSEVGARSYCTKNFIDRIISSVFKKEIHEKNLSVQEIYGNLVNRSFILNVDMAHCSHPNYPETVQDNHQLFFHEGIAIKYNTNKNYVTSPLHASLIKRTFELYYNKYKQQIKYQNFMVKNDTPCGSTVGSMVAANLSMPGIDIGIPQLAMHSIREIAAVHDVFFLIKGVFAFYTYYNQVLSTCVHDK

Estrogen receptor beta [2] = target: T3, Estrogen receptor beta (Homo sapiens, UniProt Q92731); experiment: ERβ–SRC-3 coactivator interaction inhibitors, confirmation, orthogonal assay, biochemical, ELISA, streptavidin-HRP readout (AID 1060)
T3 sequence (Q92731 whole entry): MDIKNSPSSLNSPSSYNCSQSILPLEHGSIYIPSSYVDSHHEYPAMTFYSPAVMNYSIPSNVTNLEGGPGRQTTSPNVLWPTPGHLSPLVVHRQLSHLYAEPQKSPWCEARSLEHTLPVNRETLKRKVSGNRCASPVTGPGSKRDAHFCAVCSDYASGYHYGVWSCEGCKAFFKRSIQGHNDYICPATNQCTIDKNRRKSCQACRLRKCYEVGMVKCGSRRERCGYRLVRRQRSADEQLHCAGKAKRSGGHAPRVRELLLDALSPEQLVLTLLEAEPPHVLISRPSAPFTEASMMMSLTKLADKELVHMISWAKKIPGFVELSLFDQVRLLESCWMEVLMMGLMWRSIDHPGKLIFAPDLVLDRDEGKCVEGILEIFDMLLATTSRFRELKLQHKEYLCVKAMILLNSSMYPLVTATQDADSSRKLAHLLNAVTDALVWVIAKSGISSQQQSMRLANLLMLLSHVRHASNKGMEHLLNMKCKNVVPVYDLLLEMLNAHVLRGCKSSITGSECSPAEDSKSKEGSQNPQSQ

[3] = target: Induced myeloid leukemia cell differentiation protein Mcl-1 (Homo sapiens, UniProt Q07820); type: functional
Induced myeloid leukemia cell differentiation protein Mcl-1, sequence (Q07820 whole entry, the tested form may be a part): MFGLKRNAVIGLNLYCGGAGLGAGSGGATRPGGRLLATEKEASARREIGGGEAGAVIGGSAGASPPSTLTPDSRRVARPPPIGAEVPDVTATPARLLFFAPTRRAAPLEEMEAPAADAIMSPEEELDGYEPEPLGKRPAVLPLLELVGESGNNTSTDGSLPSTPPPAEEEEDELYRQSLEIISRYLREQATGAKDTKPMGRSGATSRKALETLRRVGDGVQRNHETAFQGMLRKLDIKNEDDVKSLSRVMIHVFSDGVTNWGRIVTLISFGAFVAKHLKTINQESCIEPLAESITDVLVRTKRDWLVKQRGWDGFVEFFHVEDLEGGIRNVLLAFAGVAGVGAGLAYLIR

[4] = target: T4, Carboxy-terminal domain RNA polymerase II polypeptide A small phosphatase 1 (Homo sapiens, UniProt Q9GZU7); experiment: inhibitors of CTDSP1, concentration-response testing, biochemical assay, absorbance-based, actives from ultra-high-throughput screening (AID 540297); type: functional
T4 sequence (Q9GZU7 whole entry): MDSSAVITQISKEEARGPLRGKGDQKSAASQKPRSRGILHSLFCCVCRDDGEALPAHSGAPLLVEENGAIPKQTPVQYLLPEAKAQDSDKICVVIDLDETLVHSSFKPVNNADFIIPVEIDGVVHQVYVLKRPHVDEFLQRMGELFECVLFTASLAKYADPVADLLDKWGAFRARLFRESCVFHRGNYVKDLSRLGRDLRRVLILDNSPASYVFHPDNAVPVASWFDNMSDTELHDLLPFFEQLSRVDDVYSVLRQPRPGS

Estrogen receptor beta [5] = target: T3, Estrogen receptor beta
Prothrombin = Prothrombin (Homo sapiens, UniProt P00734); experiment: Thrombin 1536 HTS Dose Response Confirmation. [Related pubchem assays: 1046 (Thrombin 1536 HTS; hits were confirmed in this assay)]; type: functional
[6] = target: Peroxisome proliferator-activated receptor gamma/Nuclear receptor coactivator 2 (Homo sapiens, UniProt P37231); type: functional;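 also: agonist potency for raising coactivator recruitment to the receptor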
Peroxisome proliferator-activated receptor gamma/Nuclear receptor coactivator 2, sequence (P37231 whole entry): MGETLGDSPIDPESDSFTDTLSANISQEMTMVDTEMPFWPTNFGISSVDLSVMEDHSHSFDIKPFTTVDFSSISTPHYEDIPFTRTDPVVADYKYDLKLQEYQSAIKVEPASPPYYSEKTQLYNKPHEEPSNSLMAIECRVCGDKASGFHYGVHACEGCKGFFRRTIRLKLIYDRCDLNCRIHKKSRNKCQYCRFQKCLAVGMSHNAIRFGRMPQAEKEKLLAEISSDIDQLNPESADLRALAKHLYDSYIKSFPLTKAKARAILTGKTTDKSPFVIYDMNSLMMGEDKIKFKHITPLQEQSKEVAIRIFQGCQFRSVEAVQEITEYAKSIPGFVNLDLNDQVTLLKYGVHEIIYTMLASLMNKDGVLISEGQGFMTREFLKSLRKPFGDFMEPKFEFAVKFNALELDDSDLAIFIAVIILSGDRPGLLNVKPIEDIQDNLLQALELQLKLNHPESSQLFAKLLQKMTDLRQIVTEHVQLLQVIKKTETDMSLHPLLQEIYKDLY
Peroxisome proliferator-activated receptor gamma/Nuclear receptor coactivator 2, sequence (Q15596 whole entry, further chain): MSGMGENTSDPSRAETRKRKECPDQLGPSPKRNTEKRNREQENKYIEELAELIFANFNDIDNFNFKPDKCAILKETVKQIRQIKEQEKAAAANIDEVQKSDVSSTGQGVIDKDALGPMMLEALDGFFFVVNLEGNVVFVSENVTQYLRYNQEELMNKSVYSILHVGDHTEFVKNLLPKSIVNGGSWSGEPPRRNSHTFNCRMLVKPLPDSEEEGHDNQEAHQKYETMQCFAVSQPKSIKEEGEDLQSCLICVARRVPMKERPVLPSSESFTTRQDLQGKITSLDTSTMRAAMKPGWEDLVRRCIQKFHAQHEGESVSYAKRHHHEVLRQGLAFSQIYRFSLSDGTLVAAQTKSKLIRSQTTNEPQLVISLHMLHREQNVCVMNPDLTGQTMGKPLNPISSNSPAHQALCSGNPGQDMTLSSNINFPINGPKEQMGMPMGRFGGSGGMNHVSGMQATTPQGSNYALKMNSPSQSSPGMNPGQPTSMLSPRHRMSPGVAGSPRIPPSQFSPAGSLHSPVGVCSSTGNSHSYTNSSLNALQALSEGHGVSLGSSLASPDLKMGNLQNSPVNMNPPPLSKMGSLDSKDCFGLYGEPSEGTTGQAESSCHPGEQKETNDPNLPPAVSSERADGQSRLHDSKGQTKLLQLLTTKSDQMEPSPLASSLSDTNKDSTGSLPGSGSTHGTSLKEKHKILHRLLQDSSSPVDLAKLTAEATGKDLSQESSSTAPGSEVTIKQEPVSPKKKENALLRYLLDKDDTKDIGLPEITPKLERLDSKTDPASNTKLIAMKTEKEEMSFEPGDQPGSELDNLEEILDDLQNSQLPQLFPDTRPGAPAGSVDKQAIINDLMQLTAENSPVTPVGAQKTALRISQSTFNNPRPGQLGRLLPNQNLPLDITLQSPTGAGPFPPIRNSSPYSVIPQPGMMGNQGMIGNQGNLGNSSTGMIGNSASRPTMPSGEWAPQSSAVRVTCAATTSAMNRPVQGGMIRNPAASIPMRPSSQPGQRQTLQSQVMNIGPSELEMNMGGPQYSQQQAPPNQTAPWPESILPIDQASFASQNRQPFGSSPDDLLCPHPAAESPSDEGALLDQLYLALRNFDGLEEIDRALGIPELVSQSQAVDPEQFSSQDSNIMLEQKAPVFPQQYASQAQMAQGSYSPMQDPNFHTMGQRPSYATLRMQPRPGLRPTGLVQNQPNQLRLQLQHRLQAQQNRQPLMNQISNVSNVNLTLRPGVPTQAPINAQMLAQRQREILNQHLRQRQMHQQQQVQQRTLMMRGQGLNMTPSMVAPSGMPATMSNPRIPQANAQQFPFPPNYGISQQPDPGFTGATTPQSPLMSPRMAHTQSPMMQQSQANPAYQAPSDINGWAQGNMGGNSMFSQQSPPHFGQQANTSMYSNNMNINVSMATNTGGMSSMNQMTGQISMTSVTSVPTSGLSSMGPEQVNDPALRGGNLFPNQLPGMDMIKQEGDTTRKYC

[7] = target: Peroxisome proliferator-activated receptor gamma/Nuclear receptor coactivator 3 (Homo sapiens, UniProt P37231); type: functional;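 also: agonist potency for raising coactivator recruitment to the receptor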
[8] = target: Peroxisome proliferator-activated receptor gamma/Nuclear receptor coactivator 1 (Homo sapiens, UniProt P37231); type: functional;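 also: agonist potency as compounds enhance coactivator SRC-1 recruitment to PPARgamma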
Cytochrome P450 2D6 = Cytochrome P450 2D6 (Homo sapiens, UniProt P10635); experiment: qHTS Assay for Inhibitors and Substrates of Cytochrome P450 2D6. [Related pubchem assays: 410 ]; type: ADME; conditions: read-out: Potency
Cytochrome P450 2D6, sequence (P10635 whole entry): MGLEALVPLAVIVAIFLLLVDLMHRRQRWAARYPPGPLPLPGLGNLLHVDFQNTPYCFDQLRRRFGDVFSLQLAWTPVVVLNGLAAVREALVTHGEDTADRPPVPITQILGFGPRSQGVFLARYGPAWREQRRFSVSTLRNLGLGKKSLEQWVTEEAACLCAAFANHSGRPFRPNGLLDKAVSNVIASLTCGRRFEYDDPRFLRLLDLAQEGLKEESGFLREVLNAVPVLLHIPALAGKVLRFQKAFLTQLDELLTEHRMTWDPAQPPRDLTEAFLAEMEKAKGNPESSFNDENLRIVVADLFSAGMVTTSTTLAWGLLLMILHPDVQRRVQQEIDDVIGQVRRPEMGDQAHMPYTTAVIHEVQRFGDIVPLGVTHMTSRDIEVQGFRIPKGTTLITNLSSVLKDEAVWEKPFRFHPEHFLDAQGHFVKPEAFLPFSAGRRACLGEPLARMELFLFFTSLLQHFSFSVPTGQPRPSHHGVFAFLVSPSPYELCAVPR

Estrogen receptor = target: T5, Estrogen receptor (Homo sapiens, UniProt P03372);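 also: potency for inhibiting coactivator peptide recruitment to the receptor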
T5 sequence (P03372 whole entry): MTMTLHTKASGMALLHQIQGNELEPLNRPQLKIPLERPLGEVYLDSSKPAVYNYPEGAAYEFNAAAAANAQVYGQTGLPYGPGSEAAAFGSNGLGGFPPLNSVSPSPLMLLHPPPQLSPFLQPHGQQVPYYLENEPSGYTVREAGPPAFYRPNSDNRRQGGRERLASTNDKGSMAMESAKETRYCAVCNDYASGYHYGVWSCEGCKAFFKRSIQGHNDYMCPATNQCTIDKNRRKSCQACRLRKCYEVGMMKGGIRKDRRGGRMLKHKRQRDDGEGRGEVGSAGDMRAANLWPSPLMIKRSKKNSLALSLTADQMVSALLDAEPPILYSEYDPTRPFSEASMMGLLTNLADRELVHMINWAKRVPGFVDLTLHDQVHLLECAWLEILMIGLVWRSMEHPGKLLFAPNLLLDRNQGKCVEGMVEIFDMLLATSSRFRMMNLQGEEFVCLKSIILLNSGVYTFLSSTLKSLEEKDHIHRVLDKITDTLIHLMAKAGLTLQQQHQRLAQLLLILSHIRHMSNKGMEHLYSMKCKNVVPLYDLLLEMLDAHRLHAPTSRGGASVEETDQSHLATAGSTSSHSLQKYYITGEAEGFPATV

[9] = target: T6, Aryl hydrocarbon receptor (Homo sapiens, UniProt P35869); experiment: Luminescence-based cell-based high throughput dose response assay for activators of the Aryl Hydrocarbon Receptor (AHR). [Related pubchem assays: 2796 (Primary screen (AHR activators in singlicate)), 2845 (Confirmation screen (AHR activators in triplicate)), 434939 (Counterscreen (PXR activators in triplicate)), 2804 (Summary (AHR activators))]; type: ADME
T6 sequence (P35869 whole entry): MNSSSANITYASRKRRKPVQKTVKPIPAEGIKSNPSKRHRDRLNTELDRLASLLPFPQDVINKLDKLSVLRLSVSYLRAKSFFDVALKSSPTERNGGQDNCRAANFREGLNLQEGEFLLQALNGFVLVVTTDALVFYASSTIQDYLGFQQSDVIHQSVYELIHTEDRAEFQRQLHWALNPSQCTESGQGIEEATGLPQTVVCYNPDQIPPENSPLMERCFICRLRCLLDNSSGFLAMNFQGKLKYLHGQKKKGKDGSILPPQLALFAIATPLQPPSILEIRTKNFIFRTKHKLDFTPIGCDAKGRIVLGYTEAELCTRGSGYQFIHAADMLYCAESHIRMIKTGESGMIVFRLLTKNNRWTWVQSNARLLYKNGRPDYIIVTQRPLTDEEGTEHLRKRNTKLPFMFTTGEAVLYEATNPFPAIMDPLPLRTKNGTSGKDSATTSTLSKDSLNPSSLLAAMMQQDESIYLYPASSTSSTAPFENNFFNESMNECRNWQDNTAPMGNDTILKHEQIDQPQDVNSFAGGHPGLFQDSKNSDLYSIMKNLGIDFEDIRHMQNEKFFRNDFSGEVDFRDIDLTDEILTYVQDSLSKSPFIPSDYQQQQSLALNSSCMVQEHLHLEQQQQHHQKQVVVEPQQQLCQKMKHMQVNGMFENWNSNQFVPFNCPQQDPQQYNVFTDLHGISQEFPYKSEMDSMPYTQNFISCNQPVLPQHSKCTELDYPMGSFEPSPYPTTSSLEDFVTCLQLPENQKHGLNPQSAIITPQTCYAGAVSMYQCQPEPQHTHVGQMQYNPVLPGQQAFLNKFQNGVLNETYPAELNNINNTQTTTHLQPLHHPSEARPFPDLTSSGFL

[10] = HEp-2 cell cytotoxicity, dose response, cytotoxicity control for RSV inhibitor project, HTS (AID 2410); type: functional; conditions: human respiratory syncytial virus
cells [11] = type: functional
[12] = cytotoxicity toward NIH3T3 fibroblasts, dose response, counter-screen, cell-based, ATP luminescence, mouse fibroblasts (AID 2010); type: functional;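 also: cells exposed to compound for about 90 hours before reading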
[13] = inhibitors of intracellular T. cruzi replication, confirmation, NIH3T3 host cells, beta-gal luminescence (AID 2044); type: functional, cell-based;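 also: intracellular parasites grown in NIH/3T3 mouse fibroblasts as host cells; luminescent beta-galactosidase reporter signal from transgenic T. cruzi replicating inside host cells; inhibitors lower the luminescence signal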
cells [14] = experiment: cells
[15] = microbe, parasite or virus in culture; type: functional; conditions: Mycobacterium tuberculosis
[16] = target: T7, Corticotropin-releasing factor receptor 2/Corticotropin-releasing factor-binding protein (Homo sapiens, UniProt P24387+Q13324); experiment: activators of CRF receptor 2 with binding protein – uHTS hits, confirmation (AID 602473); type: functional; conditions: read-out: EC50_Mean
T7 sequence (Q13324 whole entry): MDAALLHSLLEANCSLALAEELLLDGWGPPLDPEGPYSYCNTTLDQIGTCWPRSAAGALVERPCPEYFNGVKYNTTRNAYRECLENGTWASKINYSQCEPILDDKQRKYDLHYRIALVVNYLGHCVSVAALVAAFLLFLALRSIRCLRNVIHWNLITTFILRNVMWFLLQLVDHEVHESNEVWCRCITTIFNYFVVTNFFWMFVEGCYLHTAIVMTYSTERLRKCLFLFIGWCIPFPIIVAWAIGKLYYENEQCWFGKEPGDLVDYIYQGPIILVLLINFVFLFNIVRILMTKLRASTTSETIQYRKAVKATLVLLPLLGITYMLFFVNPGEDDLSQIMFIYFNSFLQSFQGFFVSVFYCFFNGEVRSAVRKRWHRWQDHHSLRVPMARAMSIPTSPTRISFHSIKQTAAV
T7 sequence (P24387 whole entry): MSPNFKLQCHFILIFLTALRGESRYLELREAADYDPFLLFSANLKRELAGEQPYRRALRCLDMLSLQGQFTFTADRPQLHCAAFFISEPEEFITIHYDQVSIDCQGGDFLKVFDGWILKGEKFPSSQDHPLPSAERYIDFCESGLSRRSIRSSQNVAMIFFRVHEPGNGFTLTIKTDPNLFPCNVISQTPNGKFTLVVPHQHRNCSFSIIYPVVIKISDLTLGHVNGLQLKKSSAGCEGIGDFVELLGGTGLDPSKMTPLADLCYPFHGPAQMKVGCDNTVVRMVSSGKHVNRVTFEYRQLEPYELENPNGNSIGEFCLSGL

Cytochrome P450 3A4 = Cytochrome P450 3A4 (Homo sapiens, UniProt P08684); conditions: Potency;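 also: confirmatory qHTS run detecting inhibitors and substrates of CYP3A4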
Cytochrome P450 3A4, sequence (P08684 whole entry): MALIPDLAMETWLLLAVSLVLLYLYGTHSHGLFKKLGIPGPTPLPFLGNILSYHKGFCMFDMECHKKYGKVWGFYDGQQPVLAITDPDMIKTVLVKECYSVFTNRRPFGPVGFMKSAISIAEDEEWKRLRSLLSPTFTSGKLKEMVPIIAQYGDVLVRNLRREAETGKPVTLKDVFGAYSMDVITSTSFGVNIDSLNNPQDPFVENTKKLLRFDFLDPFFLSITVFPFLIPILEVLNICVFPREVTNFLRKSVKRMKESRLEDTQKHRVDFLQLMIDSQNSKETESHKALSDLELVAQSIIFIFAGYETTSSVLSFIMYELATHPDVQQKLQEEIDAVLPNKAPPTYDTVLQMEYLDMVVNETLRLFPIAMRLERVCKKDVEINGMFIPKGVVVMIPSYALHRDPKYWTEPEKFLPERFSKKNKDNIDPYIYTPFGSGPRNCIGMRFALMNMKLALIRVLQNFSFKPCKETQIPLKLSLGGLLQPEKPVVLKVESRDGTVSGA

Nc1ncncc1-c1ccc(Cl)cc1
EC50 [1]: > 50 µM (active)

CC1(C)Cc2c(sc(NC(=O)C3CC(Cl)=CCC3C(=O)O)c2C#N)CO1 (stereo not drawn)
IC50 (Procathepsin L): > 59.6 µM (not active) | IC50 (Leucine aminopeptidase): 1.4 µM (active) | IC50 (Aspartyl aminopeptidase): > 73.5 µM (not active)

Cc1ccc(/C=c2\sc3nc(-c4ccccc4Br)nn3c2=O)o1
IC50 (Estrogen receptor beta [2]): 0.0611 µM (not active) | IC50 [3]: 3.18 µM (active) | IC50 [4]: 5.95 µM (active) | IC50 (Leucine aminopeptidase): 95.5 µM (active) | IC50 (Estrogen receptor beta [5]): > 50 µM (not active) | IC50 (Prothrombin): > 50 µM (not active)

COc1cc(OC)cc(-n2nnnc2SCC(=O)Nc2ccc(C(C)=O)cc2)c1
EC50 [6]: 5.13 µM (active) | EC50 [7]: 8.1 µM (active) | IC50 (Prothrombin): > 50 µM (not active) | EC50 [8]: 8.56 µM (active)

CC1=NCCc2c1[nH]c1cc(O)ccc21 [HARMALOL]
AC50 (Cytochrome P450 2D6): 31.6 µM (inconclusive)

O=C(Nc1cccc(-c2cn3cccnc3n2)c1)c1ccc2c(c1)OCO2
IC50 (Estrogen receptor): 6.67 µM (active)

O=C(Nc1ccc(Cc2ccncc2)cc1)C1CCC(N2C(=O)C3CC=CCC3C2=O)CC1 (stereo not drawn)
IC50 (Estrogen receptor beta [5]): > 50 µM (not active) | IC50 (Estrogen receptor): > 50 µM (not active)

Cc1ccc(OCC(O)Cn2c(N)nc3c2c(=O)n(C)c(=O)n3C)cc1 (stereo not drawn)
EC50 [1]: > 50 µM (active)

CCN(/N=C/c1ccc(Cl)cc1)c1cc(=O)n(C)c(=O)[nH]1
EC50 [9]: 1.12 µM (active)

Cc1cc(C)n2cc(-c3ccc(Cl)cc3)c(C(=O)O)c2n1
CC50 [10]: 38.9 µM (active) | EC50 [9]: 0.994 µM (active)

C=CCn1c(N)cc(=O)nc1SCC(=O)Nc1ccc2ccccc2c1
IC50 (Procathepsin L): > 59.6 µM (not active) | IC50 (Leucine aminopeptidase): 5.68 µM (active) | IC50 (Aspartyl aminopeptidase): > 73.5 µM (not active)

O=C(c1cc([N+](=O)[O-])cc([N+](=O)[O-])c1)N(Cc1nnc(-c2ccccc2Cl)o1)C1CC1
IC50 (cells [11]): 1.75 µM (active) | EC50 [12]: > 60 µM (not active) | EC50 [13]: < 0.1 µM (active) | EC50 (cells [14]): 0.068 µM (active) | CC50 [15]: > 40 µM (active)

CN(C)c1ccc(CNCCC2CCOC(C)(C)C2)cc1 (stereo not drawn)
EC50 [12]: > 30 µM (not active) | EC50 [13]: < 0.1 µM (active) | EC50 (cells [14]): 0.036 µM (active)

CCOC(=O)c1cc2ccccc2n1CCN(CC)CC
EC50 [16]: 6.45 µM (active) | IC50 (Estrogen receptor): > 50 µM (not active)

CCCCc1nc2c(c3c1CC(C)OC3)CN(CCOc1ccccc1)CC2 (stereo not drawn)
AC50 (Cytochrome P450 2D6): 3.16 µM (inconclusive) | AC50 (Cytochrome P450 3A4): 3.16 µM (inconclusive)

Nc1c(C(=O)c2ccc(Br)cc2)oc2ccccc12
EC50 [9]: 3.3 µM (active)
